Data reported in PubChem BioAssay (NCI).
Several values for one entry are separate records, joined by “and”; a condition that tells them apart may be missing. Equal entries are not always repeated.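 Protocol summary: plate cells (96-well), add compound at 5 concentrations, incubate 48 h, interpolate endpoints linearly. Here, GI50 denotes the concentration required for 50% inhibition of growth. At the TGI there is no net growth.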

Legend:
Assay in all cases: inhibition of tumour cell growth, NCI panel, 48 h
OVCAR-3 ovarian = test system: OVCAR-3 ovarian
CCRF-CEM leukemia = test system: CCRF-CEM leukemia
NCI-H23 lung = test system: NCI-H23 lung
MOLT-4 leukemia = test system: MOLT-4 leukemia
SNB-19 CNS = test system: SNB-19 CNS
NCI-H460 lung = test system: NCI-H460 lung
OVCAR-5 ovarian = test system: OVCAR-5 ovarian
NCI-H522 lung = test system: NCI-H522 lung
NCI-H226 lung = test system: NCI-H226 lung
HCC-2998 colon = test system: HCC-2998 colon

Row | SMILES | GI50 (OVCAR-3 ovarian) | TGI (OVCAR-3 ovarian) [µM] | GI50 (CCRF-CEM leukemia) | TGI (CCRF-CEM leukemia) | GI50 (NCI-H23 lung) | TGI (NCI-H23 lung) | GI50 (MOLT-4 leukemia) | TGI (MOLT-4 leukemia) | GI50 (SNB-19 CNS) | TGI (SNB-19 CNS) | GI50 (NCI-H460 lung) | TGI (NCI-H460 lung) | GI50 (OVCAR-5 ovarian) | TGI (OVCAR-5 ovarian) | GI50 (NCI-H522 lung) | TGI (NCI-H522 lung) | GI50 (NCI-H226 lung) | TGI (NCI-H226 lung) | GI50 (HCC-2998 colon) | TGI (HCC-2998 colon)
1 | Cc1cc(-c2ncc(CC(=O)Nc3ccc(-c4cnccn4)cn3)cc2C)ccn1 | 41.2 µM | > 100 | 35.8 µM | > 100 µM | 23.6 µM | > 100 µM | 23.9 µM | > 100 µM | 34.6 µM | > 100 µM | 63 µM | > 100 µM | 26.3 µM | > 100 µM | 22.7 µM | > 100 µM | 13.7 µM | > 100 µM | > 100 µM | > 100 µM
2 | COc1cc(C2CC(c3ccc(C)cc3)=NN2C=O)ccc1Oc1ccnc2cc(Cl)ccc12 (centres undefined) | > 50 µM | > 50 | > 50 µM | > 50 µM | 6.93 µM | > 50 µM | > 50 µM | > 50 µM | 9.53 µM | > 50 µM | > 50 µM | > 50 µM | > 50 µM | > 50 µM | 2.72 µM | > 50 µM | 1.81 µM | > 50 µM | > 50 µM | > 50 µM
3 | CC1=C(C(=O)Nc2ccccc2C)C(c2ccccc2)C(C(=O)Nc2ccccc2C)=C(C)N1 |  | > 100 |  | 73.9 µM |  | > 100 µM |  | 53 µM |  | > 100 µM |  | > 100 µM |  | > 100 µM |  | > 100 µM |  | > 100 µM |  | > 100 µM
4 | CNc1ccc2nc3ccc(=[N+](C)C)cc-3sc2c1 | 0.408 µM and 0.205 µM |  | 0.432 µM and 0.489 µM | 17 µM and > 100 µM | 0.817 µM and 0.323 µM | 7.91 µM and 2.75 µM | 0.637 µM and 0.667 µM | 12.1 µM and 9.36 µM | 0.747 µM and 0.324 µM | 8.83 µM and 6.11 µM | 2.32 µM and 0.879 µM | 18.5 µM and 11.5 µM | 2.85 µM and 0.514 µM | 6.86 µM and 4.31 µM | 0.291 µM and 0.465 µM | 1.33 µM and 3.79 µM | 2.31 µM and 2.53 µM | 10.8 µM and 12.4 µM | 2.84 µM and 1.12 µM | 15.9 µM and 18.6 µM
5 | O=C1NCc2ccc3c(-c4cccc(Cl)c4)c[nH]c3c21 | 0.18 µM | > 50 | 0.192 µM | > 50 µM | 0.484 µM | > 50 µM | 0.256 µM | > 50 µM | 0.29 µM | > 50 µM | 0.201 µM | > 38.2 µM | 1.62 µM | > 50 µM | 0.225 µM | > 39 µM | 28.9 µM | > 50 µM | 0.734 µM | > 22.9 µM
6 | O=C(c1ccccc1)C(c1ccccc1)C1(O)C(=O)Nc2c(Cl)cc(Cl)cc21 (centres undefined) |  | > 100 |  | 49.7 µM |  | 35.5 µM |  | 61.9 µM |  | 55.3 µM |  | > 100 µM |  | 33.2 µM |  | 34.1 µM |  | 32.6 µM |  | 33.8 µM
7 | CCOC(=O)[C@@]1(C)C=C2O[C@@H]3OC4(CCCCC4)O[C@@H]3C2=C2C(O)=CC=C(O)[C@]21C(=O)OC |  | > 68 |  | > 68 µM |  | > 68 µM |  | > 68 µM |  | > 68 µM |  | > 68 µM |  | > 68 µM |  | > 68 µM |  | > 68 µM |  | > 68 µM
8 | C=CCn1c2c(c3ccccc3c1=O)C(=O)c1ccccc1-2 |  | > 100 |  | > 100 µM |  | > 100 µM |  | 16.8 µM |  | > 100 µM |  | > 100 µM |  | > 100 µM |  | > 100 µM |  | > 100 µM |  | > 100 µM
